Test results published in ChEMBL document CHEMBL1201862, “PubChem BioAssay data set” (2004).
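Growth conditions: 96-well plates. Treatment: test compound, 48 hours, 5 concentrations. Analysis: linear interpolation between bracketing concentrations; unreached endpoints set to highest concentration. GI50: concentration for 50% inhibition of growth.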 Calls of active or inactive are those of the source. Cut-off read from the data, not from the text of the source: active = GI50 up to about 1.1 µM and inactive = higher. *1 amine or outer side, *2 acyl side, *3 side chain or, on linkers, in order; H or OH if unused. Where a SMILES comes first, the peptide text is derived from it. Bridges are numbered along the chain shown (N, C = ends). Roman numbers before positions name the chains, in order. [ ]: non-standard residue; d: D form. Actinocin(9to1) = Cc1c2oc3c(C)ccc(C(=O)[*:1])c3nc-2c(C(=O)[*:2])c(N)c1=O; NMeV = CN[CH](C(=O)O)C(C)C; Sar = CNCC(=O)O

How the values were obtained:
Test in all cases: DTP human tumour cell line panel, 48 h
[1] = test system: A549
[2] = test system: BT-549
[3] = test system: COLO 205
[4] = test system: DU-145
[5] = test system: HCC 2998
[6] = test system: HCT-15
[7] = test system: K562
[8] = test system: MCF7
[9] = test system: MOLT-4
[10] = test system: NCI-H23
[11] = test system: NCI-H460
[12] = test system: NCI-H522
[13] = test system: OVCAR-3
[14] = test system: OVCAR-4
[15] = test system: OVCAR-8
[16] = test system: RPMI-8226
[17] = test system: SF-539
[18] = test system: SK-MEL-2
[19] = test system: SW-620
[20] = test system: UACC-257

Measured: GI50

O=c1ssc(Cl)c1Cl
> 10 µM: [6]
inactive: [1] > 10 µM | [2] > 10 µM | [3] 2.11 µM | [4] > 10 µM | [5] > 10 µM | [7] 3.23 µM | [8] > 7.78 µM | [9] 2.39 µM | [10] > 10 µM | [11] > 10 µM | [12] 4.05 µM | [13] > 10 µM | [14] > 5.6 µM | [15] > 10 µM | [16] 5.19 µM | [17] > 10 µM | [18] > 10 µM | [19] 3.55 µM | [20] > 7.19 µM

O=c1[nH]nc(Cc2ccc(Cl)cc2)n1/N=C/c1ccc([N+](=O)[O-])o1
inactive: [1] 3.42 µM | [2] 1.87 µM | [3] 1.84 µM | [4] 3.64 µM | [5] 2.13 µM | [7] 2.58 µM | [8] 1.75 µM | [9] 1.55 µM | [10] 3.34 µM | [11] 3.4 µM | [14] 2.73 µM | [15] 1.99 µM | [17] 2.21 µM | [18] 3.38 µM | [19] 2.92 µM | [20] 2.77 µM
active: [12] 1 µM | [13] 0.53 µM | [16] 1.12 µM
2.21 µM: [6]

O=C1c2ccccc2-c2c1c1ccccc1c(=O)n2-c1cccnc1
24.9 µM: [6]
inactive: [1] 11.5 µM | [2] 34.8 µM | [3] > 68.1 µM | [4] > 100 µM | [5] > 100 µM | [7] > 60.3 µM | [8] 22.5 µM | [9] 3.78 µM | [10] 37.8 µM | [11] 6.24 µM | [12] 10.5 µM | [13] > 71.3 µM | [14] > 49.3 µM | [15] 31.8 µM | [16] > 39.5 µM | [17] 21.3 µM | [18] > 100 µM | [19] 20.2 µM | [20] > 100 µM

O=c1[nH]c(Br)nc2[nH]nnc12
inactive: [1] > 100 µM | [2] 18.1 µM | [3] > 100 µM | [4] 14.1 µM | [5] > 100 µM | [7] 9.4 µM | [8] 74.1 µM | [9] 2.73 µM | [10] > 100 µM | [11] > 100 µM | [12] > 100 µM | [13] > 100 µM | [14] 85.5 µM | [15] 8.79 µM | [16] 17.9 µM | [17] 16.7 µM | [18] 8.24 µM | [19] 45.8 µM | [20] 55.6 µM
> 100 µM: [6]

Cc1c2oc3c(C)ccc(C(=O)NC4C(=O)NC(C(C)C)C(=O)N5CCCC5C(=O)N(C)CC(=O)N(C)C(C(C)C)C(=O)OC4C)c3nc-2c(C(=O)NC2C(=O)NC(C(C)C)C(=O)N3CCCC3C(=O)N(C)CC(=O)N(C)C(C(C)C)C(=O)OC2C)c(N)c1=O (stereo not given) (I: TVP[Sar][NMeV] / II: TVP[Sar][NMeV]; ester I:1-I:C, II:1-II:C; linker I:N-II:N via Actinocin(9to1); configuration not given here)
active: [1] 0.000199 µM | [2] 0.0025 µM | [3] 0.000161 µM | [4] 0.000359 µM | [5] 0.00684 µM | [7] < 0.0001 µM | [8] < 0.0001 µM | [9] < 0.0001 µM | [10] 0.000556 µM | [11] < 0.0001 µM | [12] < 0.0001 µM | [13] 0.00105 µM | [14] 0.000445 µM | [15] 0.000212 µM | [16] 0.00104 µM | [17] < 0.0001 µM | [18] < 0.0001 µM | [19] 0.000698 µM | [20] 0.000957 µM
0.0123 µM: [6]

CC(C)=CCC[C@@H](C)[C@H]1CC[C@@]2(C)[C@@H]3CC[C@H]4C(C)(C)[C@@H](O)CC[C@@]45C[C@@]35CC[C@]12C [CYCLOARTENOL]
> 100 µM: [6]
inactive: [1] 21.6 µM | [2] 21.1 µM | [3] > 60 µM | [4] 59.7 µM | [5] > 31.6 µM | [7] 26 µM | [8] 31.8 µM | [9] > 51.9 µM | [10] 22.7 µM | [11] 17.8 µM | [12] 20.7 µM | [13] > 100 µM | [14] > 100 µM | [15] 16.9 µM | [16] 45 µM | [17] > 49.7 µM | [18] 27.2 µM | [19] 58.2 µM | [20] > 100 µM

C=C(C)[C@@H]1CC[C@]2(C)CC[C@]3(C)[C@H](CC[C@@H]4[C@@]5(C)CC[C@H](O)C(C)(C)[C@@H]5CC[C@]43C)[C@@H]12 [LUPEOL]
> 70.1 µM: [6]
inactive: [1] > 62.7 µM | [2] 15.6 µM | [3] > 100 µM | [4] > 100 µM | [5] > 100 µM | [7] > 46 µM | [8] 21.7 µM | [9] 27.5 µM | [10] 61.5 µM | [11] 45.7 µM | [12] 23.8 µM | [13] > 55.1 µM | [14] > 100 µM | [15] 33.3 µM | [16] 53.7 µM | [17] > 88.7 µM | [18] > 100 µM | [19] > 48.2 µM | [20] > 42.7 µM

O=C1c2ccccc2-n2c1nc1ccccc1c2=O [TRYPTANTHRIN]
active: [16] 1.04 µM
3.6 µM: [6]
inactive: [1] 2.59 µM | [2] 14.6 µM | [3] 12.8 µM | [4] 10.7 µM | [5] 29.4 µM | [7] 3.18 µM | [8] 7.19 µM | [9] 7.94 µM | [10] 9.73 µM | [11] 1.44 µM | [12] 15.3 µM | [13] 4.54 µM | [14] 19.1 µM | [15] 5.79 µM | [17] 20.7 µM | [18] 10.1 µM | [19] 20.8 µM | [20] 3.02 µM
